Measurements published in PMC9687805 (Biomolecules, 2022).
“And” between values parts separate entries of the source, which are not always exact repeats. Equal entries are not always repeated. Where two headings read alike, the source gives them in different places.

Experiments:
Human erythrocyte AChE = target: T1, Human erythrocyte AChE (Homo sapiens, UniProt P22303); experiment: biochemical; details: for IC50: human erythrocyte AChE, 5 min incubation, 25 °C, pH 7.5, read-out: Inhibitory activity against AChE, IC50; for inhibition at 20 µM: read-out: Inhibitory activity against AChE, % inhibition at 20 μM
T1 construct: purchased Sigma-Aldrich; host or cells: human erythrocytes
Protocol: (§1) The assay solution consisted of 0.1 M K/Na phosphate buffer pH 7.5, 25 °C, 0.33 mM DTNB, 0.02 unit/mL AChE or BChE, and 1 mM substrate (ATCh or BTCh, respectively). Reagent blanks consisted of reaction mixtures without substrates.
(§2) Each experiment was performed in triplicate.

equine serum BChE = target: T2, equine serum BChE (Equus caballus, UniProt P81908); experiment: biochemical; details: mean ± SEM, n = 3; for IC50: equine serum BChE, 5 min incubation, 25 °C, pH 7.5, read-out: Inhibitory activity against BChE, IC50; for inhibition at 20 µM: read-out: Inhibitory activity against BChE, % inhibition at 20 μM, compound 20 μM, n.a. = not active
T2 construct: purchased Sigma-Aldrich; host or cells: equine serum
Protocol: as §1, §2

EeAChE PAS = target: T3, EeAChE PAS (Electrophorus electricus, UniProt O42275); experiment: biochemical; assay type: binding; details: 0.25 h; compound 20 μM, EeAChE 7 μM, propidium iodide 8 μM; n.a. = not active; read-out: % Displacement of Propidium from the EeAChE PAS at 20 μM
T3 construct: purchased Sigma-Aldrich type VI-S; host or cells: electric eel
Protocol: Electrophorus electricus (EeAChE) (electric eel, type VI-S, lyophilized powder, Sigma-Aldrich, St. Louis, MO, USA) was used owing to its high degree of purification, high activity, and lower cost than human AChE (hAChE). […] To determine the degree of displacement (% displacement) of propidium from the PAS of AChE, EeAChE (final concentration, 7 μM) was incubated with the test compound at a concentration of 20 μM in 1 mM Tris-HCl buffer pH 8.0, 25 °C, for 15 min. Then, propidium iodide solution (final concentration, 8 μM) was added, the samples were incubated for 15 min, and the fluorescence spectrum (530 nm (excitation) and 600 nm (emission)) was taken. […] The blank contained propidium iodide of the same concentration in 1 mM Tris-HCl buffer, pH 8.0 at 25 °C. The measurements were carried out in triplicate on a FLUOStar Optima microplate reader (LabTech, Ortenberg, Germany), and the results were calculated by the following formula:% Displacement = 100 − (IFAChE + Propidium + inhibitor / IFAChE + Propidium) × 100 (1) where IFAChE + Propidium is the fluorescence intensity of the propidium associated with AChE in the absence of the test compound (taken as 100%), and IFAChE + Propidium + inhibitor is the fluorescence intensity of the propidium associated with AChE in the presence of the test compound.

[1] = ABTS radical cation scavenging activity assay; parameters: key to ABTS•+-scavenging activity, TEAC: ratio of slopes, tested compound vs Trolox (Trolox = 1); details: n=3, 1 h, 30 °C; for ABTS•+-scavenging activity, TEAC: Trolox equivalent antioxidant capacity, mean ± SEM; for IC50: concentration for 50% reduction of ABTS radical cation
Protocol: Radical scavenging activity of the compounds was evaluated by the ABTS radical cation (ABTS^•+) scavenging assay showing the ability of the compounds to decolorize the ABTS^•+ solution [86] with some modifications. Trolox was used as the antioxidant standard; ascorbic acid was used as the comparison compound. All tested compounds and standards were dissolved in DMSO.
The solution of ABTS^•+ was produced by mixing 7 mM ABTS aqueous solution with 2.45 mM potassium persulfate aqueous solution in equal quantities and allowing them to react for 12–16 h at room temperature in the dark. Radical scavenging capacity of the compounds was analyzed by mixing 10 µL of compound with 240 µL of ABTS^•+ working solution in ethanol (100 µM final concentration), and after 1 h of incubation at 30 °C the decrease in absorbance was measured spectrophotometrically at 734 nm using a Bio-Rad xMark microplate UV/VIS spectrophotometer (Bio-Rad, Hercules, CA, USA). The compounds were tested in the concentration range 5 × 10^−7–1 × 10^−4 M. Ethanol blanks were run in each assay. Values were obtained from five replicates of each sample and three independent experiments.
Antioxidant activity was reported as Trolox equivalent antioxidant capacity (TEAC values), consisting of the ratio between the slopes obtained from the linear correlation for concentrations of the tested compounds and Trolox with absorbance of ABTS radical. […] The calculations were carried out using Origin 6.1 for Windows (OriginLab, Northampton, MA, USA). Results are presented as mean ± SEM calculated using GraphPad Prism version 6.05 for Windows, GraphPad Software (San Diego, CA, USA).

[2] = Ferric reducing antioxidant power (FRAP) assay; details: Trolox equivalents; n=3, 1 h, 37 °C; mean ± SEM
Protocol: The FRAP (Ferric Reducing Antioxidant Power) assay measures the ability of antioxidants to reduce the ferric 2,4,6-tripyridyl-s-triazine complex [Fe(TPTZ)2]^3+ to the intensely blue-colored ferrous complex [Fe(TPTZ)2]^2+ with an absorption maximum at λ = 593 nm. The reducing ability of a compound is an indicator of its potential antioxidant activity.
The ferric reducing ability of the compounds was determined by a previously described method as a microplate-adapted version described in [42]. 2,4,6-tris(pyridin-2-yl)-1,3,5-triazine (TPTZ), FeCl3·6H2O, Trolox, ascorbic acid and DMSO were obtained from Sigma-Aldrich Chemical Co (St. Louis, MO, USA). The FRAP reagent was prepared by mixing acetate buffer (0.3 M, pH 3.6), TPTZ (10 mM in 40 mM HCl) and FeCl3·6H2O (20 mM in distilled water) in a ratio of 10:1:1 immediately before use. Compounds were dissolved in DMSO and tested in the concentration range of 1×10^−6–1×10^−4 M. The solvent content in the reaction mixture was 4% (v/v). The test compounds (10 µL) were added to the FRAP reagent solution (240 µL) and mixed thoroughly. The reaction was carried out at 37 °C in the dark, the incubation time was 1 h. The absorbance at 600 nm was monitored spectrophotometrically by a FLUOStar OPTIMA microplate reader (BMG Labtech, Germany) at 37 °C. Trolox was used as a standard antioxidant, ascorbic acid as a reference compound. Values were obtained from four replicates of each sample and three independent experiments.
The ferric reducing ability of compounds was expressed as TE units (antioxidant activity in Trolox equivalent) with the values calculated as the ratio of the concentrations of Trolox and the test compound resulting in the same effect.

porcine liver CES = experiment: CES inhibition, 4-nitrophenyl acetate hydrolysis; details: compound 20 μM; mean ± SEM, n = 3; n.a. = not active
Protocol: Final enzyme and substrate (4-nitrophenyl acetate) concentrations were 0.02 unit/mL and 1 mM, respectively. Assays were carried out with a blank containing all constituents except porcine CES to assess non-enzymatic hydrolysis. Measurements were performed with a FLUOStar Optima microplate reader (BMG Labtech, Ortenberg, Germany). Compounds were dissolved in DMSO; the incubation mixture contained 2% (v/v) solvent. The primary evaluation of the inhibitory activity of the compounds was performed by determining the degree of the enzyme inhibition at a compound concentration of 20 µM. For this, a sample of the corresponding enzyme was incubated with the test compound for 5 min; then the enzyme residual activity was determined. Each experiment was performed in triplicate. […] Substrate was then added and residual enzyme activity relative to an inhibitor-free control was measured using a FLUOStar Optima microplate reader.

[3] = Metal-chelating properties by UV-Vis spectrometry in acetonitrile; assay type: physicochemical; details: compound 40 µM, metal 40 µM, 25 °C, red shift of absorbance
Protocol: The complexing studies were made in acetonitrile at 25 °C using a UV–vis spectrophotometer Shimadzu UV-2600 (Shimadzu Corporation, Kyoto, Japan) with wavelength ranging from 190 to 600 nm. Solutions (200 µM in acetonitrile) of the following metals compounds were prepared in volumetric flasks: FeCl2·4H2O (99%, Acros Organics by Thermo Fisher Scientific (Kandel, Germany)), CuCl2 (98%, Alfa Aesar by Thermo Fisher Scientific (Kandel, Germany)), or Zn(NO3)2·6H2O (98%, Alfa Aesar by Thermo Fisher Scientific (Kandel, Germany). Solutions of the test compounds were also prepared in acetonitrile at 400 µM concentrations. To a mixture of 0.5 mL test compound solution (40 μM final concentration) and 3.5 mL acetonitrile, 1 mL of the metal solution (CuCl2, FeCl2·4H2O, or Zn(NO3)2·6H2O; 40 µM final concentration) was added. The solution was incubated at 25 °C for 30 min and then the absorption spectra were recorded at 25 °C in a 1 cm quartz cell. The control was prepared by mixing 0.5 mL tested compound solution and 4.5 mL acetonitrile.

[4] = compound 20 μM, mean ± SEM, n = 3, n.a. = not active

T2 sequence (P81908 whole entry): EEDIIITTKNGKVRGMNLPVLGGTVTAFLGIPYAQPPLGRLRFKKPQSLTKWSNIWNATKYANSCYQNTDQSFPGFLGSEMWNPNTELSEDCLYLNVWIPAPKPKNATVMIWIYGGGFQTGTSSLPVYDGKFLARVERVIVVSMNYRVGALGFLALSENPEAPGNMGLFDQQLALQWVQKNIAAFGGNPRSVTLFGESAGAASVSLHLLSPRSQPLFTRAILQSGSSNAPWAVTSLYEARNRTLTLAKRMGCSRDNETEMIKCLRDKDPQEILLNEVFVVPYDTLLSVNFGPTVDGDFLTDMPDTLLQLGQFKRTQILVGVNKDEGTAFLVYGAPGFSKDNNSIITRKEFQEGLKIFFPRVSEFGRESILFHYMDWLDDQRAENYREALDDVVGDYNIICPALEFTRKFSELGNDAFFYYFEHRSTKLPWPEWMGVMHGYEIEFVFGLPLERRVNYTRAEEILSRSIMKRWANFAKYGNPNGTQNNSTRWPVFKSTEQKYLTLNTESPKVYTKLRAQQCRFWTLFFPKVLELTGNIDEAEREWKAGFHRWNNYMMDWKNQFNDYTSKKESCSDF
T3 sequence (O42275 24-633): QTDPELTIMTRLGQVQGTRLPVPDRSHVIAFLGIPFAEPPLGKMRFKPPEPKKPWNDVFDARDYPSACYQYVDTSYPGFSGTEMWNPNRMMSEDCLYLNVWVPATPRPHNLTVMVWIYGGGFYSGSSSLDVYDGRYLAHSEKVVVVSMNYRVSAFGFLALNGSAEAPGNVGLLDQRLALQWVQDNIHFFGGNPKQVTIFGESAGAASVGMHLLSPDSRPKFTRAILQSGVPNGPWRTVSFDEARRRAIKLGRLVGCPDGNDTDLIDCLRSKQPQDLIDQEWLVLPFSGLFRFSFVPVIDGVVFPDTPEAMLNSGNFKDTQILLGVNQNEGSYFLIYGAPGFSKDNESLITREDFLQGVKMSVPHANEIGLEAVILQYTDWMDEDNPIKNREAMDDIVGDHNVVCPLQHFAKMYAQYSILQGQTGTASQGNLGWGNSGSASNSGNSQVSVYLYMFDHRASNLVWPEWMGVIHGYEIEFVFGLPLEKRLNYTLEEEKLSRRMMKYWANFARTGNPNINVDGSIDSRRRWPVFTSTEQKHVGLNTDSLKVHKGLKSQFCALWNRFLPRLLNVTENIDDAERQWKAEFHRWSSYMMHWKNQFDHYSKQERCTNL
T1 sequence (P22303 32-617 isoform P22303-2 limits assumed): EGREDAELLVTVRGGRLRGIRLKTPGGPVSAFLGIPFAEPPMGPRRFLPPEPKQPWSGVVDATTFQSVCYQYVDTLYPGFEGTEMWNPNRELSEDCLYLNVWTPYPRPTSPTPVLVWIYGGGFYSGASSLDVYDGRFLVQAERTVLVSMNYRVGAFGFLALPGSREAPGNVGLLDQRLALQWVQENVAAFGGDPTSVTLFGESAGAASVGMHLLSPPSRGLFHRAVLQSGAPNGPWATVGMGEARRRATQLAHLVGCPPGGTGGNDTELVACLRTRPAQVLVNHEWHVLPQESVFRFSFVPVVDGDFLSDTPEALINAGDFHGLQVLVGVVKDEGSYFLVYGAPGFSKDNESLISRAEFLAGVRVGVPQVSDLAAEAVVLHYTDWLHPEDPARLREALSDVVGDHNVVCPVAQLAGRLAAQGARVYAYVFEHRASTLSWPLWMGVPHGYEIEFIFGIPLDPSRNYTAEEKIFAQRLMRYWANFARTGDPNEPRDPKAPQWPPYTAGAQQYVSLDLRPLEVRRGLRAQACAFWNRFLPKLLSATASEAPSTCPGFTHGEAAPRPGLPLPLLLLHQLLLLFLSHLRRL

| SMILES | IC50 (Human erythrocyte AChE; mean ± SEM, n = 3) | IC50 (equine serum BChE) | inhibition at 20 µM (EeAChE PAS) [%] | ABTS•+-scavenging activity, TEAC [1] | IC50 [1] [nM] | FRAP (Fe3+-reducing activity), TE [2] | Inhibitory activity against CES, % inhibition at 20 μM (porcine liver CES) [%] | Metal-chelating ability for Cu2+, Fe2+ and Zn2+ [3] | inhibition at 20 µM (Human erythrocyte AChE; [4]) [%] | inhibition at 20 µM (equine serum BChE) [%] | inhibition at 20 µM (Human erythrocyte AChE) [%] |
| --- | --- | --- | --- | --- | --- | --- | --- | --- | --- | --- | --- |
| C/C(NCCCCCCCCNc1c2c(nc3ccccc13)CCCC2)=C(/N=N/c1ccc(C)cc1)C(=O)C(F)(F)F [8c] | 240 nM and 241 nM | 98.5 ± 1.3 nM | 16.2 ± 1.4 | 0.95 ± 0.03 | 19400 ± 1300 | 0.12 ± 0.01 | 12.2 ± 1.7 | – | – | – | – |
| C/C(NCCCCNc1c2c(nc3ccccc13)CCCC2)=C(/N=N/c1ccc(C)cc1)C(=O)C(F)(F)F [8a] | 1690 ± 50 nM | 246 ± 16 nM | 13.7 ± 1.2 | 1.13 ± 0.05 | 17700 ± 1300 | 0.06 ± 0.01 | 28.6 ± 4.0 | metal-chelating ability | – | – | – |
| C/C(NCCCCCCNc1c2c(nc3ccccc13)CCCC2)=C(/N=N/c1ccc(C)cc1)C(=O)c1ccccc1 [7b] | 380 ± 3 nM | 47 ± 3.8 nM | 15.5 ± 1.3 | 0.91 ± 0.03 | 21800 ± 1600 | 0.51 ± 0.06 | 33.2 ± 1.7 | – | – | – | – |
| CCCCCCN/C(C)=C(\N=N\c1ccc(C)cc1)C(=O)C(F)(F)F [2c, (3Z)-4-(Hexylamino)-3-[(E)-(4-methylphenyl)diazenyl]-1,1,1-trifluoropent-3-en-2-one] | – | – | – | 1.00 ± 0.04 | 19900 ± 1400 | not active | – | – | 14.7 ± 3.2 | 35.3 ± 2.7 | – |
| C/C(NCCCCCCCCNc1c2c(nc3ccccc13)CCCC2)=C(/N=N/c1ccc(C)cc1)C(=O)c1ccccc1 [7c] | 250 nM and 249 nM | 74.5 ± 6 nM | 14.1 ± 1.1 | 0.92 ± 0.03 | 21800 ± 1600 | 0.58 ± 0.03 | 23.4 ± 2.2 | – | – | – | – |
| O=C1O[C@H]([C@@H](O)CO)C(O)=C1O [Ascorbic acid, ascorbic acid, reference compound] | – | – | – | 0.96 ± 0.02 | 22600 ± 1300 | 1.23 ± 0.11 | – | – | – | – | – |
| C/C(NCCCCNc1c2c(nc3ccccc13)CCCC2)=C(/N=N/c1ccc(C)cc1)C(=O)c1ccccc1 [7a] | 889 ± 7 nM | 36 nM and 35.9 nM | 11.9 ± 0.8 | 0.90 ± 0.04 | 22300 ± 1900 | 0.43 ± 0.04 | 31.2 ± 2.9 | metal-chelating ability | – | – | – |
| CC(=O)C(/N=N/c1ccc(C)cc1)=C(\C)NCCCCNc1c2c(nc3ccccc13)CCCC2 [6a] | 1390 ± 40 nM | 139 ± 17 nM | 15.6 ± 1.2 | 1.00 ± 0.03 | 19500 ± 1100 | 0.37 ± 0.06 | 23.3 ± 0.4 | metal-chelating ability | – | – | – |
| CC(=O)C(/N=N/c1ccc(C)cc1)=C(\C)NCCCCCCCCNc1c2c(nc3ccccc13)CCCC2 [6c] | 270 nM and 272 nM | 54 nM and 54.3 nM | 17.8 ± 1.4 | 0.80 ± 0.03 | 27500 ± 1600 | 0.49 ± 0.05 | 30.1 ± 1.2 | – | – | – | – |
| CCCCCCN/C(C)=C(\N=Nc1ccc(C)cc1)C(=O)c1ccccc1 [2b, (3Z)-3-(Hexylamino)-2-[(4-methylphenyl)diazenyl]-1-phenylbut-2-en-1-one] | – | – | – | 0.98 ± 0.03 | 18900 ± 1200 | 0.52 ± 0.02 | – | – | 12.5 ± 0.6 | 25 ± 2 | – |
| Cc1c(C)c2c(c(C)c1O)CCC(C)(C(=O)O)O2 (centres unmarked) [Trolox, 6-hydroxy-2,5,7,8-tetramethylchroman-2-carboxylic acid, reference compound] | – | – | – | 1.0 | 19700 ± 800 | 1.0 | – | – | – | – | – |
| CCCCCCN/C(C)=C(\N=N\c1ccc(C)cc1)C(C)=O [2a, (3Z)-4-(Hexylamino)-3-[(E)-(4-methylphenyl)diazenyl]pent-3-en-2-one] | – | 18100 ± 800 nM | – | 0.94 ± 0.03 | 20300 ± 1600 | 0.57 ± 0.02 | – | – | – | – | 22.9 ± 1.2 |
| C/C(NCCCCCCNc1c2c(nc3ccccc13)CCCC2)=C(/N=N/c1ccc(C)cc1)C(=O)C(F)(F)F [8b] | 280 nM and 276 nM | 125 ± 6 nM | 14.4 ± 1.3 | 1.00 ± 0.04 | 17900 ± 600 | 0.11 ± 0.03 | 19.9 ± 2.9 | – | – | – | – |
